Among the data in PubChem BioAssay (NCI) are GI50 and TGI values, retold here.

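The compound was tested at five concentrations on cells cultured in 96-well plates, with a 48-hour exposure period. GI50 marks 50% less growth. TGI is the concentration that stops growth completely.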

This experiment deals with MDA-MB-468 breast. As to the kind of experiment: NCI anticancer screen, dose series, 48 h.
In the case of `O=C(C=P(c1ccccc1)(c1ccccc1)c1ccccc1)CCl`, the GI50 was 0.268 µM and the TGI turned out to be 1.28 µM.
The corresponding values for `COC1=C(C)C(=O)c2c(c(CCCl)c3n2CCC3OC(C)=O)C1=O` (stereo not given) are 5.01 µM and 22.5 µM.
`CC1(C)N=C(N)N=C(N)N1c1ccc(OCCCNC(=O)Nc2cccc(S(=O)(=O)F)c2)c(Cl)c1`: the GI50 is 15.7 µM and the TGI was above 100 µM.
On the same counts, the results for `O=Nc1c(-c2c(O)[nH]c3cc(Br)ccc23)[nH]c2ccccc12` are 2 µM and 4.93 µM.
On to `CC(C)[C@@](O)(c1ccc2cc(OC(F)F)c(OC(F)F)cc2c1)c1cn[nH]n1`, for which the GI50 was 12.9 µM and the TGI stood at 47.4 µM.
In the case of `CN1CCN(c2ccc(Nc3nc(NCCCNS(=O)(=O)c4ccccc4)c4sccc4n3)cc2)CC1`, the GI50 was 11.8 µM and the TGI stood at 26.4 µM.
The corresponding values for `Cn1cc(C2=C(c3cn(-c4ccccc4)c4ccccc34)C(=O)NC2=O)c2ccccc21` are 7.58 µM and above 25 µM.
The corresponding values for `Clc1cc(Cl)c(OCCCCCCN2CCNCC2)c(Cl)c1` are 2.14 µM and 4.61 µM.
On the same counts, the results for `COc1ccc(C(=NN=C(N)N)c2ccc(OC)cc2)cc1` are 1.71 µM and 4.71 µM.
`Cc1ccc2cccc(OC(=O)Nc3cccc(C(F)(F)F)c3)c2n1`: the GI50 is 3.65 µM and the TGI turned out to be 12.9 µM.
The corresponding values for `COc1ccc(CCN(CC(=O)N(CC(N)=O)C2CCC[C@@H]2OCc2ccccc2)C(=O)CN(C(=O)CN(CCc2ccc(Cl)cc2)C(=O)CN(C(=O)CN(C)Cc2ccccc2F)[C@H](C)C2CCCCC2)[C@H](C)C2CCCCC2)cc1OC` (stereo not given in full) are 0.941 µM and 4.2 µM.
The corresponding values for `C#Cc1cccc(Nc2ncnc3ccc(OCCCCNCCS(C)(=O)=O)cc23)c1` are 0.094 µM and 0.666 µM.
The corresponding values for `C=CC(=O)N1C[C@@H]2CCOc3c(Cl)c(-c4c(O)cccc4F)c(F)c4ncnc(c34)N2C[C@H]1C` are 2.33 µM and 10.4 µM.
For `COC(=O)[C@]12CC[C@@H](C)[C@H](C)[C@@H]1C1=CC[C@@H]3[C@@]4(C)C[C@@H](OC(=O)/C=C/c5ccccc5)[C@H](O)[C@@](C)(CO)[C@@H]4[C@H](O)C[C@@]3(C)[C@]1(C)CC2`, the GI50 is 2.54 µM and the TGI was 8.94 µM.
On the same counts, the results for `COc1ccc(NC2=C(I)C(=O)c3ncccc3C2=O)cc1` are 1.35 µM and 2.94 µM.
The corresponding values for `COc1cc(/C=C/c2cc(/C=C/c3ccc(O)c(OC)c3)n(C(=O)Nc3ccccc3Cl)n2)ccc1O` are 0.264 µM and 0.748 µM.
On the same counts, the results for `O=C(c1ccc(C(F)(F)F)c(Cl)c1)N(Cc1ccc(Cl)cc1)c1ccc(-c2cc(C(F)(F)F)[nH]n2)c(O)c1` are 0.928 µM and 3.91 µM.
Take `O=c1cnnc(N/N=C/c2ccccc2O)[nH]1`: the GI50 is 0.265 µM and the TGI came out at 3.32 µM.
Regarding `O=C1CC(c2ccccc2)Cc2nc3ccc(Br)cc3cc21` (stereo not given), the GI50 is 2.23 µM and the TGI amounted to 7.94 µM.
In the case of `Cc1ccc(C=C2C(Cl)=C(Cl)C(Cl)=C2Cl)cc1`, the GI50 is 0.189 µM and the TGI amounted to 0.573 µM.
